Assay results taken from patent US6806291B1, “Analgesic compounds, their synthesis and pharmaceutical compositions containing them” (The Foundation for the LSU Health Sciences Center, priority 2003, dated 2004).

Tests used:
[1] = tested on: Complete Freund's Adjuvant (CFA)-induced thermal hyperalgesia; test: CFA-induced thermal hyperalgesia (paw withdrawal latency, Hargreaves); assay type: in vivo, male CD-1 mice; conditions: 2.5 mmol/kg by oral gavage at 48 hours post-CFA; latency measured 30 minutes to 6 hour after drug; ANOVA drug effect p=0.014
Protocol: To determine whether the SCP-M series has analgesic activity, its effect on Complete Freund's Adjuvant (CFA)—induced thermal hyperalgesia was accessed. Under halothane anesthesia, male CD-1 mice were injected with 0.1 ml of CFA (Calbiochem, USA) to the glabrous surface of one hind paw. When injected into the footpad, CFA produces localized inflammation and hyperalgesia that appears within two hours and is present for 7 to 10 days (Iadorola, et al., 1988). At 48-hours post-CFA (time of peak hyperalgesia), each mouse received by oral gavage 2.5 mmol/kg of SCP-M1 or vehicle. The latency to withdraw the paw from a thermal stimulus (Hargreaves, et al., 1988) was measured using an analgesiometer (IITC Life Sciences, Inc., Woodland Hills, Calif.) according to the technique of Hargreaves, et al. The stimulus intensity was set to produce baseline latencies of about 10-15 seconds, and a 20 second maximum latency was used. Thermal hyperalgesia was measured before drug administration (pre-drug baseline), and again at 30 minutes, 1 hour, 2 hour, 3 hour, 4 hour, 5 hour, and 6 hour after drug administration.
No other statistically significant effects were found (time effect: F(6,90)=0.486, p=0.817; drugxtime interaction: F(6,90)=0.634, p=0.793). The effects of SCP-M1 on CFA-induced thermal hyperalgesia are shown as a percentage of pre-drug baseline in FIG. 1.

[2] = tested on: human hepatocytes (HEPG-2)
Protocol: (§1) The hepatotoxic effects of SCP-M1 were evaluated in human hepatocytes (HEPG-2) and in human primary cultures of normal liver cells. […] Phase contrast, microscopy, Trypan blue exclusion, Hoechst staining, and FAS-ligand and CAR (constitutive androstane receptor) induction were used as criteria. […] HEPG-2 cells were grown and maintained in EMEM medium containing NEAA (nonessential amino acids), supplemented with 10% fetal bovine serum (FBS), and incubated at 37° C. with a constant supply of 5% CO2. Primary human liver cells were grown in HCM medium (Walkersville, Md.), and maintained in HMM medium (Walkersville, Md.) at 37° C. with 5% CO2. 80% confluent cultures of HEPG2 and primary hepatocytes growing in 6- and 24-well plates, respectively were held 6-8 hr in serum-free medium (EMEM, 0.5% FBS for HEPG2 and HMM [Clonetics, Walkersville, Md.] for primary hepatocytes) before the addition of analgesics.

[3] = tested on: human hepatocytes in primary cultures; test: Hepatotoxic effect in primary human hepatocytes, Trypan blue exclusion and Hoechst staining; assay type: cell-based
Protocol: […]. […] […].
Hoechst staining was employed for detection of apoptosis. […] 45 min.

[4] = tested on: CAR (constitutive androstane receptor)
Protocol: as §1
(§2) The up-regulation of FAS-ligand (FAS-L) and activation of CAR (constitutive androstane receptor) were analyzed by Western blot. Briefly, the cell extracts were made, and adjusted for protein concentrations by the Bio-rad method. About 15-20 μg protein were loaded onto an 8-16% gel (Bio-rad), and electrophoresis was conducted for 2 hr at 120 V. The proteins were transferred onto nitrocellulose membrane at 30 V for 60 min at 4° C.

FAS-ligand = tested on: FAS-ligand
Protocol: as §1, §2

| SMILES | analgesic effect on CFA-induced thermal hyperalgesia vs vehicle treated controls [1] | apoptotic cell death by Hoechst staining [2] | apoptosis by Trypan blue exclusion and Hoechst staining ([3]; human) | CAR activation [4] | pro-apoptotic FAS-ligand up-regulation (FAS-ligand) | apoptosis by Trypan blue exclusion and Hoechst staining ([3]; human hepatocytes in primary cultures, treated 6-8 hr at 37° C.) |
| --- | --- | --- | --- | --- | --- | --- |
| O=C(CNS(=O)(=O)c1ccccc1C(=O)O)Nc1ccc(O)cc1 [SCP-M1, 2-{[(4-hydroxyphenyl)carbamoyl]methylsulfamoyl}benzoic acid] | significant analgesic effect | practically ineffective in inducing cell death | enhanced apoptosis was caused by acetaminophen but not SCP-M1 | reduced effects | reduced effects |  |
| CC(=O)Nc1ccc(O)cc1 [acetaminophen, reference compound] |  |  |  |  |  | enhanced apoptosis |
